How the values were obtained:
[1] = biological target: T1, DNAPK (Homo sapiens, UniProt P78527); assay: Kinobeads competition binding, immobilized CZC31207, Jurkat/Ramos lysate mix; parameters: endogenous in cells; conditions: 10 μM free compound; mix of Jurkat and Ramos cell lysates
Method: (§1) To the first aliquot of cell lysate 10 μM of the free compound CZC31207 was added and allowed to bind to proteins in the lysate. Then the affinity matrix with the immobilized compound was added to capture proteins that were not interacting with the previously added free compound. Beads were separated from the lysate and bead bound proteins were eluted in SDS sample buffer and subsequently separated by SDS-Polyacrylamide gel electrophoresis (FIG. 5). Suitable gel bands were cut out and subjected to in-gel proteolytic digestion with trypsin. The second lysate aliquot was processed identically, however no free compound was added (DMSO solvent control). Peptides originating from samples 1 and 2 were labeled with iTRAQ reagents (iTRAQ 114 and iTRAQ 116) and the combined samples were analyzed with a nano-flow liquid chromatography system coupled online to a tandem mass spectrometer (LC-MS/MS) experiment followed by iTRAQ reporter ion quantification in the MS/MS spectra as described in Example 2.
(§2) Jurkat cells (ATCC number T1B-152) and Ramos cells (ATCC number CRL-1596) were either obtained from an external supplier (CIL SA, Mons, Belgium) or grown in one litre Spinner flasks (Integra Biosciences, #182101) in suspension in RPMI 1640 medium (Invitrogen, #21875-034) supplemented with 10% Fetal Bovine Serum (Invitrogen, #10270-106) at a density between 0.2×10^6 and 1.0×10^6 cells/ml. Cells were harvested by centrifugation, washed once with 1×PBS buffer (Invitrogen, #14190-094) and cell pellets were frozen in liquid nitrogen and subsequently stored at −80° C.
The identified kinases are shown in Table 5 including the percent competition values for the sample to which 10 μM free compound had been added. In total of 20 different kinases were identified and competed by different degrees.

[2] = biological target: NEK2 (Homo sapiens, UniProt P51955); assay: Kinobeads competition binding, immobilized CZC31207, HeLa/placenta lysate mix; parameters: endogenous in cells; host or cells: mix of HeLa cell lysate and placenta lysate; conditions: 10 μM free compound; mixed HeLa and placenta cell lysates
Method: (§3) To the first aliquot of cell lysate 10 μM of the free compound (CZC31207) was added and allowed to bind to proteins in the lysate. Then the affinity matrix with the immobilized compound (Example 1) was added to capture proteins that were not interacting with the previously added free compound. Beads were separated from the lysate and bead bound proteins were eluted in SDS sample buffer and subsequently separated by SDS-Polyacrylamide gel electrophoresis (FIG. 4). Suitable gel bands were cut out and subjected to in-gel proteolytic digestion with trypsin. The second lysate aliquot was processed identically, however no free compound was added (DMSO solvent control). Peptides originating from samples 1 and 2 were labeled with iTRAQ reagents (iTRAQ 115 and iTRAQ 117) and the combined samples were analyzed with a nano-flow liquid chromatography system coupled online to a tandem mass spectrometer (LC-MS/MS) experiment followed by iTRAQ reporter ion quantification in the MS/MS spectra (Ross et al., 2004. Mol. Cell. Proteomics 3(12):1154-1169). Further experimental protocols can be found in WO2006/134056 and a previous publication (Bantscheff et al., 2007. Nature Biotechnology 25, 1035-1044).
(§4) Cells were homogenized in a Potter S homogenizer in lysis buffer: 50 mM Tris-HCl, 0.8% NP40, 5% glycerol, 150 mM NaCl, 1.5 mM MgCl2, 25 mM NaF, 1 mM sodium vanadate, 1 mM DTT, pH 7.5. One complete EDTA-free tablet (protease inhibitor cocktail, Roche Diagnostics, 1 873 580) per 25 ml buffer was added. The material was dounced 20 times using a mechanized POTTER S, transferred to 50 ml falcon tubes, incubated for 30 minutes rotating at 4° C. and spun down for 10 minutes at 20,000×g at 4° C. (10,000 rpm in Sorvall SLA600, precooled). The supernatant was transferred to an ultracentrifuge (UZ)-polycarbonate tube (Beckmann, 355654) and spun for 1 hour at 145.000×g at 4° C. (40.000 rpm in Ti50.2, precooled). The supernatant was transferred again to a fresh 50 ml falcon tube, the protein concentration was determined by a Bradford assay (BioRad) and samples containing 50 mg of protein per aliquot were prepared. The samples were immediately used for experiments or frozen in liquid nitrogen and stored frozen at −80° C.
(§5) Sepharose-beads with the immobilized compound (100 μl beads per pull-down experiment) were equilibrated in lysis buffer and incubated with a cell lysate sample containing 50 mg of protein on an end-over-end shaker (Roto Shake Genie, Scientific Industries Inc.) for 2 hours at 4° C. Beads were collected, transferred to Mobicol-columns (MoBiTech 10055) and washed with 10 ml lysis buffer containing 0.4% NP40 detergent, followed by 5 ml lysis buffer containing 0.2% detergent. To elute bound proteins, 60 μl 2×SDS sample buffer was added to the column. […]

[3] = biological target: PIK3Cb (Homo sapiens, UniProt P42338); assay: as above; parameters: endogenous in cells; host or cells: mix of HeLa cell lysate and placenta lysate; conditions: 10 μM free compound; mixed HeLa and placenta cell lysates
Method: as §3, §4, §5

[4] = biological target: PIK3Cg (Homo sapiens, UniProt P48736); assay: as above; parameters: endogenous in cells; host or cells: mix of HeLa cell lysate and placenta lysate; conditions: 10 μM free compound; mixed HeLa and placenta cell lysates
Method: as §3, §4, §5

[5] = biological target: PIP5K2C (Homo sapiens, UniProt Q8TBX8); assay: as above; parameters: endogenous in cells; host or cells: mix of HeLa cell lysate and placenta lysate; conditions: 10 μM free compound; mixed HeLa and placenta cell lysates
Method: as §3, §4, §5

[6] = biological target: BCKDK (Homo sapiens, UniProt O14874); assay: Kinobeads competition binding, immobilized CZC31207, Jurkat/Ramos lysate mix; parameters: endogenous in cells; host or cells: mixed lysate of Jurkat and Ramos cells; conditions: 10 μM free compound; mix of Jurkat and Ramos cell lysates
Method: as §1
as §2, with “Cells were harvested by centrifugation, washed once with 1×PBS buffer (Invitrogen, #14190-094) and cell pellets were frozen in liquid nitrogen and subsequently stored at −80° C.” left out

[7] = biological target: MAP3K1 (Homo sapiens, UniProt Q13233); assay: as above; parameters: endogenous in cells; host or cells: mixed lysate of Jurkat and Ramos cells; conditions: 10 μM free compound; mix of Jurkat and Ramos cell lysates
Method: as §1
as §2, with “Cells were harvested by centrifugation, washed once with 1×PBS buffer (Invitrogen, #14190-094) and cell pellets were frozen in liquid nitrogen and subsequently stored at −80° C.” left out

[8] = biological target: PIK4Ca (Homo sapiens, UniProt P42356); assay: as above; parameters: capturing and identification of kinases from amix of Jurkat and Ramos cell lysates; endogenous in cells; host or cells: mix of Jurkat and Ramos cell lysates; conditions: 10 μM free compound; mix of Jurkat and Ramos cell lysates
Method: as §1
as §2, with “Cells were harvested by centrifugation, washed once with 1×PBS buffer (Invitrogen, #14190-094) and cell pellets were frozen in liquid nitrogen and subsequently stored at −80° C.” left out

[9] = biological target: CaMK2g (Homo sapiens, UniProt Q13555); assay: as above; parameters: capturing and identification of kinases from amix of Jurkat and Ramos cell lysates; endogenous in cells; host or cells: mix of Jurkat and Ramos cell lysates; conditions: 10 μM free compound; mix of Jurkat and Ramos cell lysates
Method: as §1
as §2, with “Cells were harvested by centrifugation, washed once with 1×PBS buffer (Invitrogen, #14190-094) and cell pellets were frozen in liquid nitrogen and subsequently stored at −80° C.” left out

[10] = biological target: PIK3Cd (Homo sapiens, UniProt O00329); assay: Kinobeads competition binding, immobilized CZC31207, HeLa/placenta lysate mix; parameters: endogenous in cells; host or cells: mixed lysate of HeLa cells and placenta; conditions: 10 μM free compound; mixed HeLa and placenta cell lysates
Method: as §3
as §4, with “(40.000 rpm in Ti50.2, precooled).” left out, “The samples were immediately used for experiments or frozen in liquid nitrogen and stored frozen at −80° C.” left out

[11] = biological target: FRAP (Homo sapiens, UniProt P42345); assay: as above; parameters: endogenous in cells; host or cells: mixed lysate of HeLa cells and placenta; conditions: 10 μM free compound; mixed HeLa and placenta cell lysates
Method: as §3
as §4, with “(40.000 rpm in Ti50.2, precooled).” left out, “The samples were immediately used for experiments or frozen in liquid nitrogen and stored frozen at −80° C.” left out

[12] = biological target: T1, DNAPK; assay: as above; parameters: endogenous in cells; host or cells: mixed lysate of HeLa cells and placenta; conditions: 10 μM free compound; mixed HeLa and placenta cell lysates
Method: as §3
as §4, with “(40.000 rpm in Ti50.2, precooled).” left out, “The samples were immediately used for experiments or frozen in liquid nitrogen and stored frozen at −80° C.” left out

[13] = biological target: T2, TNK1 (Homo sapiens, UniProt Q13470); assay: as above; conditions: 10 μM free compound; mixed HeLa and placenta cell lysates
T2 construct: endogenous in cells; host or cells: mix of HeLa cell lysate and placenta lysate
Method: as §3, §4
(§6) Sepharose-beads with the immobilized compound (100 μl beads per pull-down experiment) were equilibrated in lysis buffer and incubated with a cell lysate sample containing 50 mg of protein on an end-over-end shaker (Roto Shake Genie, Scientific Industries Inc.) for 2 hours at 4° C. Beads were collected, transferred to Mobicol-columns (MoBiTech 10055) and washed with 10 ml lysis buffer containing 0.4% NP40 detergent, followed by 5 ml lysis buffer containing 0.2% detergent. To elute bound proteins, 60 μl 2×SDS sample buffer was added to the column. The column was incubated for 30 minutes at 50° C. and the eluate was transferred to a siliconized microfuge tube by centrifugation. Proteins were then alkylated with 108 mM iodoacetamid. Proteins were then separated by SDS-Polyacrylamide electrophoresis (SDS-PAGE).
(§7) Gel-separated proteins were digested in-gel essentially following a previously described procedure (Shevchenko et al., 1996, Anal. Chem. 68:850-858). Briefly, gel-separated proteins were excised from the gel using a clean scalpel, destained twice using 100 μl 5 mM triethylammonium bicarbonate buffer (TEAB; Sigma T7408) and 40% ethanol in water and dehydrated with absolute ethanol. Proteins were subsequently digested in-gel with porcine trypsin (Promega) at a protease concentration of 10 ng/μl in 5 mM TEAB. Digestion was allowed to proceed for 4 hours at 37° C. and the reaction was subsequently stopped using 5 μl 5% formic acid.
(§8) Gel plugs were extracted twice with 20 μl 1% formic acid and three times with increasing concentrations of acetonitrile. Extracts were subsequently pooled with acidified digest supernatants and dried in a vacuum centrifuge. […]

[14] = biological target: T3, AurA (Homo sapiens, UniProt O14965); assay: as above; conditions: 10 μM free compound; mixed HeLa and placenta cell lysates
T3 construct: endogenous in cells; host or cells: mixed lysate of HeLa cells and placenta
Method: as §3, §4, §6, §7, §8

[15] = biological target: T4, MAP3K6 (Homo sapiens, UniProt O95382); assay: as above; conditions: 10 μM free compound; mixed HeLa and placenta cell lysates
T4 construct: endogenous in cells; host or cells: mixed lysate of HeLa cells and placenta
Method: as §3, §4, §6, §7, §8

[16] = biological target: T5, Erk2 (Homo sapiens, UniProt P28482); assay: as above; conditions: 10 μM free compound; mixed HeLa and placenta cell lysates
T5 construct: endogenous in cells; host or cells: mix of HeLa cell lysate and placenta lysate
T5 sequence (P28482 whole entry): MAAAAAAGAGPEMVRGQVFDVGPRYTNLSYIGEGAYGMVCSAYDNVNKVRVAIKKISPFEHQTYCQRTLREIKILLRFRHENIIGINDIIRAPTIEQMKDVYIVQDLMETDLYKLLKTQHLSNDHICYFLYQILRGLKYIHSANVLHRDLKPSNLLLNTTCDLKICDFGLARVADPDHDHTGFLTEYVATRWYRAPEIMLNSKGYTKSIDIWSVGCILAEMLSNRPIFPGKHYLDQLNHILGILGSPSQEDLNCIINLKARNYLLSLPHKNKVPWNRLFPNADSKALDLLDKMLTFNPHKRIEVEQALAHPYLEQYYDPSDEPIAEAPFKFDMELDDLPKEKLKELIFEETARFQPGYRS
Method: as §3, §4, §6, §7, §8

[17] = biological target: T6, PIK3Ca (Homo sapiens, UniProt P42336); assay: as above; conditions: 10 μM free compound; mixed HeLa and placenta cell lysates
T6 construct: endogenous in cells; host or cells: mix of HeLa cell lysate and placenta lysate
Method: as §3, §4, §6, §7, §8

[18] = biological target: T7, MLKL (Homo sapiens, UniProt Q8NB16); assay: as above; conditions: 10 μM free compound; mixed HeLa and placenta cell lysates
T7 construct: endogenous in cells; host or cells: mix of HeLa cell lysate and placenta lysate
T7 sequence (Q8NB16 whole entry): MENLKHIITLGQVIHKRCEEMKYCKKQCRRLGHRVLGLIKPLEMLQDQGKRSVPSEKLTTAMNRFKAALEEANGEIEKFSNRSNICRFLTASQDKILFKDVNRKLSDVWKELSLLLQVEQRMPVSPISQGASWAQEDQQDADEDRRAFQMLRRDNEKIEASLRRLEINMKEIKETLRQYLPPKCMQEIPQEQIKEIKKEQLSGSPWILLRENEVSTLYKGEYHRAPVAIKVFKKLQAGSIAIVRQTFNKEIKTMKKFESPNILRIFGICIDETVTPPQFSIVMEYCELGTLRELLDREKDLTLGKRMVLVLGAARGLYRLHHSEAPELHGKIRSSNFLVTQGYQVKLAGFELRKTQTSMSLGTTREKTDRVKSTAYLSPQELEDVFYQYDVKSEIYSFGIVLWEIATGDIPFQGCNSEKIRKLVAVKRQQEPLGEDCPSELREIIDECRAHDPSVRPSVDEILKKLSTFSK
Method: as §3, §4, §6, §7, §8

[19] = biological target: T8, JNK2 (Homo sapiens, UniProt P45984); assay: as above; conditions: 10 μM free compound; mixed HeLa and placenta cell lysates
T8 construct: endogenous in cells; host or cells: mixed lysate of HeLa cells and placenta
Method: as §3, §4, §6, §7, §8

T1 sequence (P78527 whole entry): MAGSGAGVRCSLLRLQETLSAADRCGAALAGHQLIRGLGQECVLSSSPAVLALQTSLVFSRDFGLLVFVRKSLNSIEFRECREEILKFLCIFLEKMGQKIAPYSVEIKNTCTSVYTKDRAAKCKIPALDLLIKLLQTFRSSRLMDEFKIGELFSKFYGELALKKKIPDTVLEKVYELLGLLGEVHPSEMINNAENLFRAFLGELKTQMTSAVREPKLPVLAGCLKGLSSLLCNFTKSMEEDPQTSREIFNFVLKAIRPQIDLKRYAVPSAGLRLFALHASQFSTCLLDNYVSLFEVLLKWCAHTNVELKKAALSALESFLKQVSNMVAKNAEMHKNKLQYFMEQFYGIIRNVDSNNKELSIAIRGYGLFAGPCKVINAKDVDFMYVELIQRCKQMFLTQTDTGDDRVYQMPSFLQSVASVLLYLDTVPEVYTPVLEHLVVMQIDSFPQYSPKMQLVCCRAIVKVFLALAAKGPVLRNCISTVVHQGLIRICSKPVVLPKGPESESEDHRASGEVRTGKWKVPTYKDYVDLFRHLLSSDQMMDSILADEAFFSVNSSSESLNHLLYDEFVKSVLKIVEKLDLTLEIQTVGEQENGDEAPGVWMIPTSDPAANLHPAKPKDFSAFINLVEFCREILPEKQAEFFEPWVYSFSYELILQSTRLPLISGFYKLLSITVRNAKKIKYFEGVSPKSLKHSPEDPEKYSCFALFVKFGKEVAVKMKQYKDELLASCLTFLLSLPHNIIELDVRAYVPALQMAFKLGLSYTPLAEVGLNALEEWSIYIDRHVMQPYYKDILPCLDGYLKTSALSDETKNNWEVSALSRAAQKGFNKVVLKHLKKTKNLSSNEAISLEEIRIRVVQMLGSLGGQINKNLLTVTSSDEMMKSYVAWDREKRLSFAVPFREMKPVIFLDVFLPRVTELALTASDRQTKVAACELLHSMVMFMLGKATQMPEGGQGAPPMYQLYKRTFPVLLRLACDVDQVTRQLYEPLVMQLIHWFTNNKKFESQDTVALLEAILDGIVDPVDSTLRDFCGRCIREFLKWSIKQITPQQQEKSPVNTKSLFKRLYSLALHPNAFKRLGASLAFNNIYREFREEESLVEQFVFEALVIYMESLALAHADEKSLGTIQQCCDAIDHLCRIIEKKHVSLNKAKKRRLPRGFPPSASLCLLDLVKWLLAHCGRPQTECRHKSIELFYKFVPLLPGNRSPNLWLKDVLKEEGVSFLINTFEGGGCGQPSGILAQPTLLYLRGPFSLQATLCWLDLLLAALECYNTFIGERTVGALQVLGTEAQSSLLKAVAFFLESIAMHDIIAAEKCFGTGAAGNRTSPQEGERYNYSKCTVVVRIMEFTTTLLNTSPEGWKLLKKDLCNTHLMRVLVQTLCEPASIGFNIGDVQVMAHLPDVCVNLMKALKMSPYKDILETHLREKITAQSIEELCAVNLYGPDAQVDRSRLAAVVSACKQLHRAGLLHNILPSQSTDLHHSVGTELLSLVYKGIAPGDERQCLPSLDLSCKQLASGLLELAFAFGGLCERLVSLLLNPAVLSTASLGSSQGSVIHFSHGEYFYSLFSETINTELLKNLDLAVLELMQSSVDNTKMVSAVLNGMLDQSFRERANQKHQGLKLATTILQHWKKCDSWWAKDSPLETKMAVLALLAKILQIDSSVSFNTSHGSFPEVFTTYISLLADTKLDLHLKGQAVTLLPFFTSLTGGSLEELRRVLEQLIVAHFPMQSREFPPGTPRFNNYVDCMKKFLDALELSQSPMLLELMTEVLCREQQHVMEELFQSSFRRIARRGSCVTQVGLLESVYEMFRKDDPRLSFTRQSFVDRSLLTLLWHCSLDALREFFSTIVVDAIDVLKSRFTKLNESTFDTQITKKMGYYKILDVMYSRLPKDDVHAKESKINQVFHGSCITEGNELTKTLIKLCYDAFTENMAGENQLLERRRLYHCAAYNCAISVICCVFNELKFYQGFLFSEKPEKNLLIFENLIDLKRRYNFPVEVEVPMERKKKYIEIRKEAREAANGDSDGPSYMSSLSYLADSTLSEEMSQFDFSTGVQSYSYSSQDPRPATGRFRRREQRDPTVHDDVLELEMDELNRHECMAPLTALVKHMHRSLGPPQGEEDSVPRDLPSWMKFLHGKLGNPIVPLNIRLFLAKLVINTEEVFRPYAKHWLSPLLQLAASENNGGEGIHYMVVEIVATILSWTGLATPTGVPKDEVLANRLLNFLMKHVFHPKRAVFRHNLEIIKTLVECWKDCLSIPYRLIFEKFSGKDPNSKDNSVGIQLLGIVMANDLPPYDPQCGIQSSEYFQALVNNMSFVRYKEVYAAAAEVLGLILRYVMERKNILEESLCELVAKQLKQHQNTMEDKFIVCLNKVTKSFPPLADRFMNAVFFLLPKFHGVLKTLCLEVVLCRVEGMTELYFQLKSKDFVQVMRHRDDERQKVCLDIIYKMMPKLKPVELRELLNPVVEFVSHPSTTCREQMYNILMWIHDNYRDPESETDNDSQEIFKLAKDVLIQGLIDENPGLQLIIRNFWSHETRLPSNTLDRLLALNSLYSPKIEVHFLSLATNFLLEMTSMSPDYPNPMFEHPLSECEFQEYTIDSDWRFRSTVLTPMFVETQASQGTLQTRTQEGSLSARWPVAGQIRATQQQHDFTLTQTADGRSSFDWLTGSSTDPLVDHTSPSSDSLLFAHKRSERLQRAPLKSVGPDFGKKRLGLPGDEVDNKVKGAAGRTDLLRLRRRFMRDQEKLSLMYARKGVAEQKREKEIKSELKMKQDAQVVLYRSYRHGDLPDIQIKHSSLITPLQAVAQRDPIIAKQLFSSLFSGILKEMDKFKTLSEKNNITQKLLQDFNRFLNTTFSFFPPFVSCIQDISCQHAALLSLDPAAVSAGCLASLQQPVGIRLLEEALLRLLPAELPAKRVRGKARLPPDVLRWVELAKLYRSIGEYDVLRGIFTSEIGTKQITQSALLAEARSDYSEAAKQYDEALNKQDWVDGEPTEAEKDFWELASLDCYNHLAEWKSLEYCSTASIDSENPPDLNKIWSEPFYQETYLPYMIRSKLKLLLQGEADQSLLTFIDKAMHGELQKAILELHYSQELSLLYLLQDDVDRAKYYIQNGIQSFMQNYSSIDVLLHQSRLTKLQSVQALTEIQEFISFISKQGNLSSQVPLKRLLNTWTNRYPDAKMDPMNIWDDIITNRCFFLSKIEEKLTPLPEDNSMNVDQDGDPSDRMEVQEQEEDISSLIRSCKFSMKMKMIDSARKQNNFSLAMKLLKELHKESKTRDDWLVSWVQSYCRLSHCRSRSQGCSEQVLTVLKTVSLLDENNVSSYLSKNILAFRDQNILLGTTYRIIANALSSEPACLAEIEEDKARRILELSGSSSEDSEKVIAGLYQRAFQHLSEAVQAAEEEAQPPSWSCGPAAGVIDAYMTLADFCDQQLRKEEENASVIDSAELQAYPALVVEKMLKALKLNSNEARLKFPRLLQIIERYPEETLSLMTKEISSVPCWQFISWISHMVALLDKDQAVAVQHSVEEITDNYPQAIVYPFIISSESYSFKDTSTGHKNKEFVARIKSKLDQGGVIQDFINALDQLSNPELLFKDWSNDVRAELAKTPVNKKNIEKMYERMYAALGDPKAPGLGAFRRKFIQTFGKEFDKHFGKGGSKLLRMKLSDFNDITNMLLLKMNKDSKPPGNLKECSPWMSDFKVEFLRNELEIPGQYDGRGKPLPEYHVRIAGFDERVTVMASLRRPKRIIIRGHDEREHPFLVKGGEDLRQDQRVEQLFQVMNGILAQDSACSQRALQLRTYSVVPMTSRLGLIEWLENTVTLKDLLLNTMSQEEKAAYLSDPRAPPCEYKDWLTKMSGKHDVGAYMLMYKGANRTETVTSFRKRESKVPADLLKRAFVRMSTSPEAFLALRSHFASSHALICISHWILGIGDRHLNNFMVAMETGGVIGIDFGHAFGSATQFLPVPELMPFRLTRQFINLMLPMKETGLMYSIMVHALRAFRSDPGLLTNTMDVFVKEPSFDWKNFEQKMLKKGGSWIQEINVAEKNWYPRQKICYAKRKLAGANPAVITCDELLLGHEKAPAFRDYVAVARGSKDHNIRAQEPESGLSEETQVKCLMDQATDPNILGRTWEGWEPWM

For `CC(C)NS(=O)(=O)c1cncc(-c2ccc3nc(NC(=O)NCCN)nn3c2)c1` [CZC31207, 5-(2-(3-(2-aminoethyl)ureido)-[1,2,4]triazolo[1,5-a]pyridin-6-yl)-N-isopropylpyridine-3-sulfonamide], the “Competition % DNAPK” value [1] was 38.2%, the “Competition % NEK2” value [2] was 40.4% and the “Competition % PIK3Cb” value [3] was 85.6%. For the same compound, the “Competition % PIK3Cg” value [4] was 80%, the “Competition % PIP5K2C” value [5] was 78.3% and the “Competition % BCKDK” value [6] was −0.1%. For the same compound, the “Competition % MAP3K1” value [7] was 14.1%, the “Competition % PIK4Ca” value [8] was 28.5% and the “Competition % CaMK2g” value [9] was −3.1%. The “Competition % PIK3Cd” value [10] was 83.6%, the “Competition % FRAP” value [11] was 25.9% and the “Competition % DNAPK” value [12] was 35.3%. The “Competition % TNK1” value [13] was −1.9%, the “Competition % AurA” value [14] was 12.8% and the “Competition % MAP3K6” value [15] was 10.3%. The “Competition % Erk2” value [16] was −2.9%, the “Competition % PIK3Ca” value [17] was 68.6% and the “Competition % MLKL” value [18] was 34.2%. The “Competition % JNK2” value [19] was 24.6%.

Reference: patent publication US8367830B2, “Methods for the identification of phosphatidylinositol kinase interacting molecules and for the purification of phosphatidylinositol kinase proteins” (Cellzome AG, priority 2009, dated 2013)
